Tests used:
[1] = injectable esters; cited from earlier work
[2] = in vivo; cited from earlier work
[3] = without some form of permeation enhancement; cited from earlier work
[4] = solubility in receiver medium; format: physicochemical; settings: 0.02% sodium azide solution, skin surface temperature 32°±1° C.

CCC(=O)O[C@H]1CC[C@H]2[C@@H]3CCC4=CC(=O)CC[C@]4(C)[C@H]3CC[C@]12C [testosterone propionate]
fluctuations in hormone levels [1]: marked supraphysiological fluctuations in hormone levels

C[C@]12CCC(=O)C=C1CC[C@@H]1[C@@H]2CC[C@@]2(C)[C@H]1CC[C@]2(C)O [methyl testosterone]
hepatotoxicity [2]: known to be hepatotoxic

C[C@]12CC[C@H]3[C@@H](CCC4=CC(=O)CC[C@@]43C)[C@@H]1CC[C@@H]2O [testosterone]
passage through non-scrotal skin [3]: does not pass through non-scrotal skin at practical fluxes | solubility in receiver medium [4]: adequate to ensure sink conditions throughout the experiment

CCCCCCC(=O)O[C@H]1CC[C@H]2[C@@H]3CCC4=CC(=O)CC[C@]4(C)[C@H]3CC[C@]12C [testosterone enanthate]
fluctuations in hormone levels [1]: marked supraphysiological fluctuations in hormone levels

— patent publication US5460820A, “Methods for providing testosterone and optionally estrogen replacement therapy to women” (TheraTech, Inc., priority 1993, dated 1995)
